# Data published in patent publication US20100249165A1, “PDZ DOMAIN MODULATORS” (University of Copenhagen, priority 2007, published 2010).
# Entries after “also recorded” stand apart in the source; their conditions may differ. Peptide text beside a SMILES is read from it.
# Columns and labels:
# [1] = target: T1, PDZ domain of PICK1 (Rattus norvegicus, UniProt Q9EP80); test: Fluorescence polarization competition binding to PICK1 (Oregon Green-labeled DAT peptide tracer); details: for potency in displacing the fluorescently tagged tracer (in words): unlabeled peptide titrated against fixed PICK1 and labeled DAT peptide; for Ki: competition with DAT13 OrG tracer 40 nM, fixed subsaturating PICK1, 15 min incubation, means of three independent experiments, read-out: Ki (μM) [SE interval]
# T1 construct: The entire coding region of rat PICK1 (residues 2-416); GST (N, cleaved yes); made in house; host or cells: E. coli BL21(DE3) pLysS
# From the text: (§1) The entire coding region of rat PICK1 (residues 2-416) is amplified from a pCINEO vector by PCR using pfu polymerase according to the instructions by the manufacturer (Stratagene, La Jolla, Calif.). The primers used introduce a 5′ restriction site for MunI and 3′ restriction site for AvrII. The PCR fragment is cleaved with MunI and AvrII and cloned into the reading frame of the pET41a vector (Novagen, Madison, Wis.) producing an N-terminally glutathione-S-transferase (GST) fusion of PICK1. The GST-PICK1 fusion was expressed in E. coli BL21(DE3) pLysS (Novagen). The transformed bacteria are grown to OD600 0.6 and expression of the fusion protein is induced with isopropyl-β-D1-thiogalactopyranoside (105 μM) overnight at 30° C. The bacteria are lysed by freezing and thawing in TBS buffer containing [50 mM Tris pH 7.4, 125 mM NaCl, 1% TX-100, 20 μg/mL DNAse I, 1 mM DTT (Sigma)]. The lysate is cleared by centrifugation (rotor SS-34, 18000 rpm, 48000×g, 30 min). The supernatant is incubated with glutathione-sepharose beads (Amersham Biosciences) under slow rotation for 90 minutes at 4° C. The beads are pelleted at 3500 g for 5 minutes and washed in TBS buffer containing [50 mM Tris pH 7.4, 125 mM NaCl, 0.1% TX-100, 1 mM DTT] by three batch washes. The protein is separated from the GST domain by cleavage with thrombin protease (Novagen) in the above wash buffer at 4° C. overnight. Samples of 10 μl are taken from the protein solution for determination of protein concentration and for analysis by SDS-PAGE. Protein determinations are performed using the BCA Protein Assay Reagent kit (Pierce Biotechnology, Inc, Rockford, Ill.) according to manufactures protocol using bovine serum albumin as standard. Gels are stained with GelCode Blue Stain Reagent (Pierce Biotechnology) in order to inspect size, integrity and purity of the protein (Madsen et al., JBC, 280, 20539-48, 2005).
# This assay is used to screen for compounds binding to the PDZ binding groove in PICK1. The assay is based on the predicted decrease in rotational diffusion of a fluorescently labeled peptide upon its binding to a larger protein. The decrease in rotational diffusion upon binding of a fluorescent labeled peptide to PICK1 can be detected as an increase in fluorescence polarization (FP). Binding of a small-molecule compound to the PDZ binding groove can be detected by its ability to displace the fluorescently labeled peptide resulting in a decreased in FP (Madsen et al., JBC, 280, 20539-48, 2005).
# To perform the assay, compounds are loaded (10 μl of each) in microtiter-plates (88 compounds per 96 well plate) (Corning) at a concentration of 1 mM in DMSO. To each well is added 90 μl buffer containing Tris base (50 mM), NaCl (125 mM), TX-100 (0.1%), PICK1 (0.45 μM) and fluorescently labeled peptide. This peptide corresponds to the C-terminus of a protein that binds to the PICK1 PDZ domain. For example, the peptide can correspond to the last 13 C-terminal residues of the DAT, of protein kinase Cα or of the GluR2 subunit of the AMPA reaceptor. The peptide can be labeled with any fluorophore. For example it can be labeled with a sulfhydryl-reactive derivative of Oregon Green via a cysteine introduced in the peptide. The peptide is used in a concentration of about 40 nM. The final concentration of the compounds in the initial screen is 100 μM. After approximately 15 min of incubation at […] the plates are analyzed in a Chameleon plate-reader (HIDEX) in the FP mode using a 488 nm excitation filter and a 535 nm long pass emission filter. Each measurement is an average of 100 flashes and is carried out four times. FP is calculated according to the equation FP=(IV−g*IH)/(IV+g*IH). As negative and positive controls, respectively, pure DMSO and DMSO with unlabeled DAT peptide (20 μM final conc.) are measured in parallel. All compounds are tested twice on separate plates.
# [2] = target: T2, interaction between PICK1 and a DAT-peptide fused to GST (Rattus norvegicus, UniProt Q9EP80); test: GST-DAT pull-down assay of PICK1; format: binding; details: PICK1 band on SDS-PAGE compared with control pull-down
# T2 construct: The entire coding region of rat PICK1 (residues 2-416); GST (N, cleaved yes); made in house; host or cells: E. coli BL21(DE3) pLysS
# Protocol: To verify binding of active compounds identified in the FP screen, a biochemical pulldown assay can be employed.
# A fusion between GST and the 24 C-terminal amino acids of the dopamine transporter (GST DAT C24) is expressed in BL21(DE3)pLysS (Novagen) using the pET41a vector (Novagen, Madison, Wis.) and purified as described for PICK1 but without digestion with thrombin.
# 5 μl dry volume of glutathione-coated sepharose beads (Pharmacia) with bound GST alone or GST DAT C24 are suspended in 200 μl TBS buffer containing as follows [50 mM Tris pH 7.4, 125 mM NaCl, 0.1% TX-100, 1 mM DTT (Sigma) and PICK1 0.5 μM]. The compounds to be tested are added in DMSO to a final concentration of 200 μM (2% DMSO final concentrtaion). The last 11 amino acids of the C-terminus of the GLT1b glutamate transporter (60 μM final) and pure DMSO (2%) can be used as a positive and negative control, respectively.
# The samples are incubated at 4° C. under slow rotation for 30 min. The beads are centrifuged at 4000 g for 5 min and subsequently washed in TBS buffer and recentrifuged. The beads containing bound protein are eluted in loading buffer and analyzed by 12% SDS-PAGE and proteins are stained with Gelcode blue stain reagent (Pierce). Active compounds i.e. a blocked pull-down are recognized by a reduced PICK1 band on the SDS-PAGE gel compared to the control pull-down. […]
# [3] = target: T3, PICK1 GluR2 interaction (Rattus norvegicus, UniProt Q9EP80); test: FRET between eCFP-GluR2 C29 and eYFP-PICK1 in COS7 cells; format: cell-based; details: compound added 20 min prior to image acquisition
# T3 construct: expressed in transfected cells; host or cells: COS7 cells, transient transfection
# Protocol: To determine whether a compound is able to block binding of a PD ligand, such as the c-terminus of the AMPA receptor GluR2 subunit, to the PICK1 PDZ domain in a cellular system a Fluorescent Resonance Energy Transfer (FRET) assay can be employed. PICK1 is fused to eYFP (eYFP-PICK1) and the C-terminal 29 residues of the AMPA receptor subunit GluR2 is fused to eCFP (eCFP-GluR2 C29). As a control for specificity of the FRET signal an alanine is added to the C-terminal 29 residues of GluR2 (eCFP-GluR2 C29+A) to disrupt the PDZ interaction. […]
# Fluorescence resonance energy transfer (FRET; see Schmid and Sitte, 2003) is measured with an epi-fluorescence microscope (Carl Zeiss TM210, Germany) using the “three-filter method” according to Xia and Liu (2001). […]
# Media are replaced by Krebs-HBS buffer (10 mM HEPES/120 mM NaCl/3 mM KCl/2 mM CaCl2/2 mM MgCl2), and images are taken using a 63× oil objective and a LUDL filter wheel that allows for rapid exchange of filters (less than 100 ms). The system is equipped with the following fluorescence filters: CFP filter (ICFP; exc.: 436 nm, dichr.: 455 nm, em.: 480 nm), YFP filter (IYFP; exc.: 500 nm, dichr.: 515 nm, em.: 535 nm) and FRET filter (IFRET: excitation=436 nm, dichroic mirror=455 nm, emission=535 nm). […] Background fluorescence is subtracted from all images and fluorescence intensity was measured in cytosolic regions in all images. […]
# [4] = target: T4, PICK1 (Rattus norvegicus, UniProt Q9EP80); test: Fluorescence polarization saturation binding of fluorescently labeled peptides to PICK1
# T4 construct: The entire coding region of rat PICK1 (residues 2-416); GST (N, cleaved yes); made in house; host or cells: E. coli BL21(DE3) pLysS
# From the text: as §1, with “Samples of 10 μl are taken from the protein solution for determination of protein concentration and for analysis by SDS-PAGE. Protein determinations are performed using the BCA Protein Assay Reagent kit (Pierce Biotechnology, Inc, Rockford, Ill.) according to manufactures protocol using bovine serum albumin as standard. Gels are stained with GelCode Blue Stain Reagent (Pierce Biotechnology) in order to inspect size, integrity and purity of the protein (Madsen et al., JBC, 280, 20539-48, 2005).” left out
# T1 sequence (Q9EP80 2-416): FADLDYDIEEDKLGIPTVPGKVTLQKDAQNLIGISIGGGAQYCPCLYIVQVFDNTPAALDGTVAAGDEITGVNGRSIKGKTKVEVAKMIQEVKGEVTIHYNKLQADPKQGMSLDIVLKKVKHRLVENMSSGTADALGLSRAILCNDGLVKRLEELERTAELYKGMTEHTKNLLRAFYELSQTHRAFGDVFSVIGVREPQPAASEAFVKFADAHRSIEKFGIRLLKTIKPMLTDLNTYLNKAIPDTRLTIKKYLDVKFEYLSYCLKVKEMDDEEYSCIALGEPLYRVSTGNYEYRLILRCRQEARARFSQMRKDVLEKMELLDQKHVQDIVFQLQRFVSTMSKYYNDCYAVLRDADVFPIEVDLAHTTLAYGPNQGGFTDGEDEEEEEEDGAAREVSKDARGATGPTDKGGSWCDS
# T3 sequence (Q9EP80 whole entry): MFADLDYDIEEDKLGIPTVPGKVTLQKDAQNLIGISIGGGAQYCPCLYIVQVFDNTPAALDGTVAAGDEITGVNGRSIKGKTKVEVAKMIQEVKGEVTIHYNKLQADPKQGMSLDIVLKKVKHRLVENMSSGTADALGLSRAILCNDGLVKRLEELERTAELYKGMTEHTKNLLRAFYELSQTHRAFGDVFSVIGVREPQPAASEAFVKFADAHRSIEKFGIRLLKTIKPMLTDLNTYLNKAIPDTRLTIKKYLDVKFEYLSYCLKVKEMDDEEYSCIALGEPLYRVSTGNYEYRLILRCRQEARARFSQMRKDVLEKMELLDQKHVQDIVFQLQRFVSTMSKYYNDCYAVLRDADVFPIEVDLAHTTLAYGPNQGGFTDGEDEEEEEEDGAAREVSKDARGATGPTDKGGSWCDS
# T2 sequence (Q9EP80 2-416): as the sequence (Q9EP80 2-416) above
# T4 sequence (Q9EP80 2-416): as above
compound,measurement,setting,value
"CC(C)C[C@H](NC(=O)[C@H](Cc1c[nH]c2ccccc12)NC(=O)[C@H](Cc1c[nH]cn1)NC(=O)[C@H](CCCNC(=N)N)NC(=O)[C@H](CC(C)C)NC(=O)[C@@H](NC(=O)[C@H](Cc1ccccc1)NC(=O)[C@H](CCC(N)=O)NC(=O)[C@H](CCCNC(=N)N)NC(=O)[C@@H](NC(=O)[C@@H](N)CCC(=O)O)C(C)C)[C@@H](C)O)C(=O)N[C@@H](CCCCN)C(=O)N[C@H](C(=O)O)C(C)C [DAT peptide, reference compound] (H-EVRQFTLRHWLKV-OH; N-terminus and C-terminus assumed)",potency in displacing the fluorescently tagged tracer (in words),[1],more than one order of magnitude more potent
"CCOc1cc(Cl)c(Cl)c(C=O)c1O [d, 2,3-Dichloro-5-ethoxy-6-hydroxy-benzaldehyde]",Ki,[1],67 µM
"CCOC(=O)NC(=O)/C(C#N)=C\c1ccc(Cl)c(Cl)c1 [j, [(Z)-2-Cyano-3-(3,4-dichlorophenyl)-acryloyl]-carbamic acid ethyl ester]",Ki,[1],40 µM
same,pull-down of PICK1 by GST-DAT (in words),[2],inhibition; also recorded: inhibited
same,FRET between eYFP-PICK1 and eCFP-GluR2 C29 (in words),[3]; compared to vehicle (1% DMSO),specifically reduced; also recorded: significantly reduced
same,FRET between eYFP-PICK1 and eCFP-GluR2 C29+A (in words),[3]; specificity control construct,no effect
"CC(C)(C)c1ccc(O)c(/N=C/c2cc(N=Nc3ccc(Cl)cc3)ccc2O)c1 [q, 4-tert-Butyl-2-{[1-[5-(4-chloro-phenylazo)-2-hydroxy-phenyl]-meth-(E)-ylidene]-amino}-phenol]",Ki,[1],19.1 µM
"CCOC(=O)c1ccc(-c2ccc(/C=C3/C(=O)NN(c4ccc(C)c(Cl)c4)C3=O)o2)cc1 [t, 4-{5-[1-(3-Chloro-4-methyl-phenyl)-3,5-dioxo-pyrazolidin-(4Z)-ylidenemethyl]-furan-2-yl}-benzoic acid ethyl ester]",Ki,[1],13.7 µM
"O=C1C(=Cc2cc(Br)ccc2OCc2ccccc2)C(=O)c2ccccc21 [v, 2-(2-Benzyloxy-5-bromo-benzylidene)-indan-1,3-dione]",Ki,[1],7.7 µM
"O=C1C(=O)c2cc([N+](=O)[O-])ccc2-c2ccccc21 [w, 2-Nitro-phenanthrene-9,10-dione]",Ki,[1],4.4 µM
"PKCα peptide: peptide corresponding to the 13 C-terminal residues of PKCα, type I PDZ binding sequence -QSAV (NPQFVHPILQSAV; UniProt P17252 660-672, looked up, fragment)",fold lower apparent affinity than the DAT peptide,[4],~10 fold
"β2 AR peptide: peptide corresponding to the 13 C-terminal residues of the β2 AR, type I PDZ binding sequence -DSLL; specificity control (SQGRNCSTNDSLL; UniProt P07550 401-413, looked up, fragment) [reference compound]",potency in displacing the fluorescently tagged tracer (in words),[1],much less potent
same,apparent affinity (in words),[4]; fluorescently labeled peptide,very low apparent affinity
